From patent US8124343B2, “IRE-1α substrates” (MannKind Corporation, priority 2005, dated 2012)
{BHQ1} = Black Hole Quencher-1 (BHQ-1) label; {FAM} = fluorescein (FAM) label

Legend:
Format in all cases: biochemical
IRE-1α [1] = biological target: T1, IRE-1α (Homo sapiens, UniProt O75460); test: High-throughput screening assay of IRE-1α RNase activity; conditions: for fluorescence signal, average: 384-well plates
T1 construct: GST (N, cleaved yes); made in house; host or cells: baculovirus-infected insect cells
Protocol: Five μl of a reaction mixture comprising 1× reaction buffer (5× reaction buffer is 100 mM Hepes pH 7.5, 250 mM KOAc, 2.5 mM MgCl2), 3 mM DTT, and 0.4% polyethylene glycol water were added to each well of 384 well plates. Twenty-five nanoliters of a 1 mM test compound solution were added to test wells. Three μl of a […] IRE-1α preparation were added to each test well and to positive control wells (final concentration 5.82 ng/well). Negative control wells contained only reaction mixture and test compound.
After spinning the plates at 1200 rpm for 30 seconds, 3 μl of a 63 nM wild-type IRE-1α substrate or 3 μl of a 63 nM mutant IRE-1α substrate diluted to 48 nM were added to each well of a control plate. The plates were again spun at 1200 rpm for 30 seconds. Final concentrations for the assay were: 63 nM wild-type IRE-1α substrate (or 48 nM mutant IRE-α substrate), 5.82 ng IRE-1α protein, and 2.5 μM test compound.
The plates were covered with lids and incubated for one hour at 30° C. The plates were then transferred to an ACQUEST™ microplate reader. Data was analyzed using data analysis software. The percent activity of IRE-1α was calculated using the following equation: […]
A Beckman Biomek FX robot was used to load all components of the reaction into 384-well plates in the following order: buffer with test compound, IRE-1α, and substrate into 384-well plates. Controls with substrate alone and substrate with IRE-1α were used to calibrate signal to noise ratio and variability between wells (first two left hand rows respectively, in FIG. 6). The two far right lanes in FIG. 6 contain the mutant 15 base dual-labeled substrate with and without IRE-1α as a quality control check for RNase contamination.

IRE-1α [2] = biological target: T1, IRE-1α; test: IRE-1α RNase activity assay, reaction products separated on denaturing gel
IRE-1α [3] = biological target: T1, IRE-1α; test: Kinetics of IRE-1α-mediated substrate cleavage; conditions: 20 nM purified IRE-1α, 63 nM substrate, 60 minute incubation, 30° C.
Protocol: Kinetics of IRE-1α-mediated substrate cleavage were measured in an assay as described above using purified active IRE-1α and the wild-type 15 base FAM-BHQ-1™-labeled substrate. The plate was incubated at 30° C. and read every 5 minutes.
These conditions result in a signal of 60,000 units, which is approximately 75% of the full 80,000 unit signal.

IRE-1α [4] = biological target: T1, IRE-1α; test: Competition assay with 15 base wild-type dual-labeled substrate as readout
Protocol: Increasing amounts of either unlabeled wild-type (SEQ ID NO:1) or mutant 33 base substrate (SEQ ID NO:2) were incubated in the standard reaction as described in Example 2 for 1 hour at 30° C.
X-axis, fluorescence intensity; columns of Y axis, from left to right: 1, wild-type 15 base FAM BHQ-1™ substrate, no IRE-1α, and no competitor (background signal); 2, wild-type 15 base FAM BHQ-1™ substrate, no IRE-1α (background signal) plus 50 fold molar excess of unlabeled wild-type 33 base substrate (control for possible quenching of fluorophore with excess and possible hybridizing to the longer 33 base substrate); 3, wild-type 15 base FAM BHQ-1™ substrate with IRE-1α and an equivalent amount of wild-type 33 base substrate; 4, same as 3 with 2× wild-type 33 base substrate; 5, same as 3 with 5× wild-type 33 base substrate; 6, same as 3 with 10× wild-type 33 base substrate; 7, same as 3 with 20× wild-type 33 base substrate; 8, same as 3 with 50× wild-type 33 base substrate; 9, wild-type 15 base FAM BHQ-1™ substrate no IRE-1α (background signal) plus 50 fold molar excess of unlabeled mutant 33 base substrate (control for possible quenching of fluorophore with excess and possible hybridizing to the longer 33 base substrate (essentially the same as 2); 10, wild-type 15 base FAM BHQ-1™ substrate with IRE-1α and an equivalent amount of mutant 33 base substrate; 11, same as 3 with 2×33 base mutant substrate; 12, same as 3 with 5×33 base mutant substrate; 13, same as 3 with 10×33 base mutant substrate; 14, same as 3 with 20×33 base mutant substrate; 15, same as 3 with 50×33 base mutant substrate; 16, wild-type 15 base FAM BHQ-1™ substrate with IRE-1α (positive control).

[5] = with IRE-1α added, FIG. 3 lanes 13-14
[6] = with IRE-1α, no PEG, FIG. 3 lanes 3-4
[7] = with IRE-1α, with PEG, FIG. 3 lanes 7-8

T1 sequence (O75460 with tags, fused parts or gaps): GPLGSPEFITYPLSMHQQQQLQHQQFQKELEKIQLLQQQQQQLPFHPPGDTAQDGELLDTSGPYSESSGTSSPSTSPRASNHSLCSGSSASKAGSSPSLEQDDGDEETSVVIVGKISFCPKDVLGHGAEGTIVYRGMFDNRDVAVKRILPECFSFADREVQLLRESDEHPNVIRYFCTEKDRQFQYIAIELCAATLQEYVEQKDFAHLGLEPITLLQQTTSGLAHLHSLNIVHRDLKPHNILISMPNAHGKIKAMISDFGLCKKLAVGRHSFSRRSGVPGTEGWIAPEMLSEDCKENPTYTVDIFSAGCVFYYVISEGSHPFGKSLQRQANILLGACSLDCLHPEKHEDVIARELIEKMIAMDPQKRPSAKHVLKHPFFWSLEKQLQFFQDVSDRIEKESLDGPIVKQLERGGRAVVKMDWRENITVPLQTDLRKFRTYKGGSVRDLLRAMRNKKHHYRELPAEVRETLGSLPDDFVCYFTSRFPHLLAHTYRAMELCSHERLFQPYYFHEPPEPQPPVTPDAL

Row | Substance | fluorescence signal, average (IRE-1α [1]; substrate alone (no IRE-1α)) | fluorescence signal, average (IRE-1α [1]; substrate and IRE-1α) | signal from cleaved FAM-BHQ1 labeled substrate (gel) (IRE-1α [2]; [5]) | cleavage of substrate by IRE-1α (gel) (IRE-1α [2]; [6]) | cleavage of substrate by IRE-1α (gel) (IRE-1α [2]; [7]) | other results
1 | 5′-CAGUCCCCAGCACUG-3′ (chemistry not fully specified) [15 base mutant substrate, 15 base mutant substrate with 5′ FAM and 3′ BHQ-1 moieties] | 10393 | 10516 | no signal |  |  | 
2 | 5′-CAGUCCGCAGCACUG-3′ (5' {FAM}, 3' {BHQ1}, sugars by position and backbone not given here) [15 base wild-type substrate, 15 base wild-type substrate with 5′ FAM and 3′ BHQ-1 moieties] | 12305 | 50076 | signal |  |  | signal (IRE-1α [3]; 10 μl reaction volume): 60,000 units; signal as share of the full 80,000 unit signal (IRE-1α [3]; 10 μl): approximately 75%; ratio of positive control over background (IRE-1α [1]; wild-type substrate and IRE-1α over substrate alone): 4.07; signal from cleaved FAM-BHQ1 labeled substrate (gel) (IRE-1α [2]; IRE-1α added diluted to 1:3, FIG. 3 lane 15): signal
3 | 5′-GGGUCUGCUGAGUCCCCAG-CACUCAGAAGGCCC-3′ (GGGUCUGCUGAGUCCCCAGCACUCAGAAGGCCC; chemistry not given here) [33 base mutant substrate] |  |  |  | does not cut | does not cut | inhibitory activity (fluorescence intensity) (IRE-1α [4]; similar concentrations (ten-fold to 50-fold excess) of unlabeled competitor): no inhibitory activity
4 | 5′-GGGUCUGCUGAGUCCGCAGCACUCAGAAGGCCC-3′ (chemistry not given here) [33 base wild-type substrate, 33 base wild-type stem-loop RNA substrate for IRE-1α] |  |  |  | cuts | cuts | inhibitory activity (fluorescence intensity) (IRE-1α [4]; 50-fold excess of unlabeled competitor, 1 hour at 30° C.): greater than 50%; competition with the 15 base IRE-1α substrate, inhibition of fluorescence intensity (IRE-1α [4]; ten-fold molar excess of unlabeled competitor, 1 hour at 30° C.): begins to compete; cleavage of substrate by IRE-1α (gel) (IRE-1α [2]; IRE-1α diluted 1:3, with PEG, FIG. 3 lane 9): cuts; cleavage of substrate by IRE-1α (gel) (IRE-1α [2]; IRE-1α diluted 1:12, with PEG, FIG. 3 lane 10): cuts; digestion of 33 base stem-loop substrate by IRE-1α (lower molecular weight band) (IRE-1α [2]; recombinant purified human IRE-1α, FIG. 3C): digested
